Test results: US20230286973A1, “PROTEIN SECRETION INHIBITORS” (KEZAR LIFE SCIENCES, priority 2020, published 2023)
Like-named read-outs stand apart in the source and are kept apart here.

Key:
[1] = tested on: PD1-ss+10aa/Gaussia Luciferase; experiment: Dox-Induced PD1-ss-Gluc Assay; type: cell-based; details: 24 hr Dox induction, 293FRT/TO cells, read-out: 24 hr Dox Inducible PD1ssGluc 293FRT/TO: Mean IC50
Procedure, shortened: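 Doxycycline-induced expression of a PD1-ss+10aa/Gaussia luciferase reporter is measured in stable Flp-In 293 T-REx cells. Compound dilutions containing doxycycline are added one day after plating and incubated at 37 °C, 5% CO2. Values for unassigned stereocentres refer to stereoisomer mixtures.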

[2] = tested on: multiple myeloma cell line U266B1; experiment: U266 Cell Viability Assay; type: cell-based, human; details: Homo sapiens, U-266, 48 h, U266B1 cells, Celltiter-Glo
Procedure, shortened: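 U266B1 multiple myeloma cells in RPMI 1640/10% FBS were treated with compound dilutions for 48 h at 37 °C, 5% CO2. Viability was measured by CellTiter-Glo luminescence; compounds drawn without stereochemistry were tested as stereoisomer mixtures.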

[3] = Liver Microsome Stability Assay (mouse); details: mouse liver microsomes, with NADPH, 1.0 uM compound
Protocol: (§1) Stability of a compound was assessed in the presence of liver microsomes from various sources—mouse, rat, monkey and human liver microsomes. 1.0 uM compound, 0.4% DMSO in 0.1 M Potassium Phosphate with 1.0 mg/mL liver microsomes, were incubated at 37° C. with or without 1 mM NADPH. The samples were quenched at 0, and 30 minutes.

[4] = tested on: HER3-ss+4aa/Gaussia Luciferase; experiment: Dox-Induced Her3-ss-Gluc Assay; type: cell-based; details: 24 hr Dox induction, 293FRT/TO cells, read-out: 24 hr Dox Inducible Her3(ss + 4)Gluc 293FRT/TO: Mean IC50
Procedure, shortened: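 Stable Flp-In 293 T-REx cells carried a doxycycline-inducible HER3 signal sequence (+4 aa) fused to Gaussia luciferase. Cells were plated the day before the assay. Compound dilutions in DMSO/media containing doxycycline were then added, and plates were incubated at 37 °C, 5% CO2.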

[5] = Liver Microsome Stability Assay (human); details: human liver microsomes, with NADPH, 1.0 uM compound
Protocol: as §1

[6] = tested on: TNFα-FL/Gaussia Luciferase; experiment: Dox Induced TNFα-FL-Gluc Assay; type: cell-based; details: for IC50: 24 hr Dox induction, 293FRT/TO cells, read-out: 24 hr Dox Inducible TNFaFLGluc 293FRT/TO: Mean IC50; for 24 hr Dox Inducible TNFaFLGluc 293FRT/TO: TNF/PD1: ratio of TNFaFLGluc IC50 to PD1ssGluc IC50
Procedure, shortened: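 Flp-In 293 T-REx cells stably carrying doxycycline-inducible full-length TNFα (aa 1-233) fused to Gaussia luciferase. Plated the day before, then treated with compound dilutions in doxycycline-containing medium at 37° C, 5% CO2.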

[7] = tested on: multiple myeloma cell line NCI-H929; experiment: H929 Cell Viability Assay; type: cell-based, human; details: Homo sapiens, NCI-H929, 48 h, NCI-H929 cells, Celltiter-Glo
Procedure, shortened: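 NCI-H929 cells in RPMI 1640 with 10% FBS were treated with compound dilutions for 48 h at 37° C, 5% CO2. Viability was read by CellTiter-Glo luminescence. Undefined stereocentres denote stereoisomer mixtures.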

[8] = tested on: IL-2-FL/Gaussia Luciferase; experiment: Dox Induced IL2-FL-Gluc Assay; type: cell-based; details: for IC50: 24 hr Dox induction, 293FRT/TO cells, read-out: 24 hr Dox Inducible IL2FLGluc 293FRT/TO: Mean IC50; for 24 hr Dox Inducible IL2FLGluc 293FRT/TO: IL2/PD1: ratio of IL2FLGluc IC50 to PD1ssGluc IC50
Procedure, shortened: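 Stable Flp-In 293 T-REx cells carrying doxycycline-inducible full-length IL-2 (aa 1-153) fused to Gaussia luciferase, plated the day before assay. Compound dilutions added in medium containing doxycycline, incubated at 37 °C, 5% CO2. Undefined stereocentres mean data refer to stereoisomer mixtures.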

[9] = Liver Microsome Stability Assay (monkey); details: monkey liver microsomes, with NADPH, 1.0 uM compound
Protocol: as §1

[10] = Liver Microsome Stability Assay (rat); details: rat liver microsomes, with NADPH, 1.0 uM compound
Protocol: as §1

[11] = '<=>' given where both are I.A.

| SMILES | IC50 [1] | EC50 [2] | Liver Microsome Stability (Multiple Species): Mouse - % Remaining after 30 min w/NADPH [3] | IC50 [4] | Liver Microsome Stability (Multiple Species): Human - % Remaining after 30 min w/NADPH [5] | IC50 [6] | 24 hr Dox Inducible TNFaFLGluc 293FRT/TO: TNF/PD1 [6] | EC50 [7] | IC50 [8] | 24 hr Dox Inducible IL2FLGluc 293FRT/TO: IL2/PD1 [8] | Liver Microsome Stability (Multiple Species): Monkey - % Remaining after 30 min w/NADPH [9] | Liver Microsome Stability (Multiple Species): Rat - % Remaining after 30 min w/NADPH [10] | IC50 ([1]; mean) | IC50 ([4]; mean) | IC50 ([6]; mean) | IC50 ([8]; mean) | 24 hr Dox Inducible IL2FLGluc 293FRT/TO: IL2/PD1 [8, 11] | 24 hr Dox Inducible TNFaFLGluc 293FRT/TO: TNF/PD1 [6, 11] |
| --- | --- | --- | --- | --- | --- | --- | --- | --- | --- | --- | --- | --- | --- | --- | --- | --- | --- | --- |
| [2H]c1c([2H])c([2H])c(N2CCC[C@@H]2c2csc(NC(=O)c3cccn3Cc3ccnc(F)c3)n2)c([2H])c1[2H] [Compound A94, (R)-1-((2-fluoropyridin-4-yl)methyl)-N-(4-(1-(phenyl-d5)pyrrolidin-2-yl)thiazol-2-yl)-1H-pyrrole-2-carboxamide] | 8.73 nM | > 25000 nM | 10.9% | 14.5 nM | 11.1% | 168 nM | 19.2 | 642 nM | 17.8 nM | 2 | 0.9% | 12.8% | – | – | – | – | – | – |
| C[C@@H](N)c1ccc(N2CCC[C@@H]2c2csc(NC(=O)c3cccn3Cc3ccncc3)n2)cc1 [Compound A67, N-(4-((R)-1-(4-((R)-1-aminoethyl)phenyl)pyrrolidin-2-yl)thiazol-2-yl)-1-(pyridin-4-ylmethyl)-1H-pyrrole-2-carboxamide] | 23.6 nM | 6860 nM | 82.3% | 65.1 nM | 28.9% | 862 nM | 36.4 | 562 nM | 55 nM | 2.3 | 40.4% | 51.9% | – | – | – | – | – | – |
| O=C(Nc1nc([C@H]2CCCN2c2cccnn2)cs1)c1cccn1Cc1ccncc1 [Compound A29, (R)-N-(4-(1-(pyridazin-3-yl)pyrrolidin-2-yl)thiazol-2-yl)-1-(pyridin-4-ylmethyl)-1H-pyrrole-2-carboxamide] | 534 nM | > 25000 nM | 1.4% | 1130 nM | 0.59% | 13100 nM | 24.4 | > 25000 nM | 2220 nM | 4.1 | 0.39% | 4.6% | – | – | – | – | – | – |
| O=C(Nc1nc([C@H]2CCCN2c2ccc(O[C@@H]3CCOC3)cc2)cs1)c1cccn1Cc1ccncc1 [Compound A3, 1-(pyridin-4-ylmethyl)-N-(4-((R)-1-(4-(((R)-tetrahydrofuran-3-yl)oxy)phenyl)pyrrolidin-2-yl)thiazol-2-yl)-1H-pyrrole-2-carboxamide] | 15.6 nM | > 25000 nM | 9% | 33.5 nM | 2.33% | 171 nM | 11 | 530 nM | 26 nM | 1.7 | 0.62% | 20.1% | – | – | – | – | – | – |
| CC(=O)N(C)c1ccc(N2CCC[C@@H]2c2csc(NC(=O)c3cccn3Cc3ccncc3)n2)cc1 [Compound A47] | 43.6 nM | > 25000 nM | 0.02% | 83.5 nM | 1.82% | 554 nM | 12.7 | 1210 nM | 82.3 nM | 1.9 | 0.06% | 1.17% | – | – | – | – | – | – |
| O=C(O)CCn1cccc1C(=O)Nc1nc([C@H]2CCCN2c2ccccc2)cs1 [Compound C12] | – | > 25000 nM | 60.4% | – | 75.1% | – | – | > 25000 nM | – | – | 90.9% | 76.3% | > 25000 nM | > 25000 nM | > 25000 nM | > 25000 nM | 1 | – |
| C[C@H](O)c1ccc(N2CCC[C@@H]2c2csc(NC(=O)c3cccn3Cc3ccnc(F)c3)n2)cc1 [Compound A112, 1-((2-fluoropyridin-4-yl)methyl)-N-(4-((R)-1-(4-((S)-1-hydroxyethyl)phenyl)pyrrolidin-2-yl)thiazol-2-yl)-1H-pyrrole-2-carboxamide] | 3.81 nM | > 25000 nM | 5.81% | 5.98 nM | 3.41% | 40 nM | 10.5 | 408 nM | 8.64 nM | 2.3 | 0.35% | 6.03% | – | – | – | – | – | – |
| O=C(Nc1nc([C@H]2CCCN2c2ccccc2)cs1)c1cccn1CCC1COC1 [Compound C99, (R)-1-(2-(oxetan-3-yl)ethyl)-N-(4-(1-phenylpyrrolidin-2-yl)thiazol-2-yl)-1H-pyrrole-2-carboxamide] | – | > 25000 nM | 19.1% | – | 26.1% | – | – | 21900 nM | – | – | 0.26% | 4.12% | 1720 nM | 2830 nM | 16800 nM | 5380 nM | 3.1 | 9.72 |
